Reference: ChEMBL document CHEMBL1149512, “3-Aryl-4-hydroxyquinolin-2(1H)-one derivatives as type I fatty acid synthase inhibitors” (Bioorg Med Chem Lett, 2006)

molecular target: Fatty acid synthase (Homo sapiens, UniProt P49327); experiment: Inhibition of human FAS
Sequence (P49327 whole entry): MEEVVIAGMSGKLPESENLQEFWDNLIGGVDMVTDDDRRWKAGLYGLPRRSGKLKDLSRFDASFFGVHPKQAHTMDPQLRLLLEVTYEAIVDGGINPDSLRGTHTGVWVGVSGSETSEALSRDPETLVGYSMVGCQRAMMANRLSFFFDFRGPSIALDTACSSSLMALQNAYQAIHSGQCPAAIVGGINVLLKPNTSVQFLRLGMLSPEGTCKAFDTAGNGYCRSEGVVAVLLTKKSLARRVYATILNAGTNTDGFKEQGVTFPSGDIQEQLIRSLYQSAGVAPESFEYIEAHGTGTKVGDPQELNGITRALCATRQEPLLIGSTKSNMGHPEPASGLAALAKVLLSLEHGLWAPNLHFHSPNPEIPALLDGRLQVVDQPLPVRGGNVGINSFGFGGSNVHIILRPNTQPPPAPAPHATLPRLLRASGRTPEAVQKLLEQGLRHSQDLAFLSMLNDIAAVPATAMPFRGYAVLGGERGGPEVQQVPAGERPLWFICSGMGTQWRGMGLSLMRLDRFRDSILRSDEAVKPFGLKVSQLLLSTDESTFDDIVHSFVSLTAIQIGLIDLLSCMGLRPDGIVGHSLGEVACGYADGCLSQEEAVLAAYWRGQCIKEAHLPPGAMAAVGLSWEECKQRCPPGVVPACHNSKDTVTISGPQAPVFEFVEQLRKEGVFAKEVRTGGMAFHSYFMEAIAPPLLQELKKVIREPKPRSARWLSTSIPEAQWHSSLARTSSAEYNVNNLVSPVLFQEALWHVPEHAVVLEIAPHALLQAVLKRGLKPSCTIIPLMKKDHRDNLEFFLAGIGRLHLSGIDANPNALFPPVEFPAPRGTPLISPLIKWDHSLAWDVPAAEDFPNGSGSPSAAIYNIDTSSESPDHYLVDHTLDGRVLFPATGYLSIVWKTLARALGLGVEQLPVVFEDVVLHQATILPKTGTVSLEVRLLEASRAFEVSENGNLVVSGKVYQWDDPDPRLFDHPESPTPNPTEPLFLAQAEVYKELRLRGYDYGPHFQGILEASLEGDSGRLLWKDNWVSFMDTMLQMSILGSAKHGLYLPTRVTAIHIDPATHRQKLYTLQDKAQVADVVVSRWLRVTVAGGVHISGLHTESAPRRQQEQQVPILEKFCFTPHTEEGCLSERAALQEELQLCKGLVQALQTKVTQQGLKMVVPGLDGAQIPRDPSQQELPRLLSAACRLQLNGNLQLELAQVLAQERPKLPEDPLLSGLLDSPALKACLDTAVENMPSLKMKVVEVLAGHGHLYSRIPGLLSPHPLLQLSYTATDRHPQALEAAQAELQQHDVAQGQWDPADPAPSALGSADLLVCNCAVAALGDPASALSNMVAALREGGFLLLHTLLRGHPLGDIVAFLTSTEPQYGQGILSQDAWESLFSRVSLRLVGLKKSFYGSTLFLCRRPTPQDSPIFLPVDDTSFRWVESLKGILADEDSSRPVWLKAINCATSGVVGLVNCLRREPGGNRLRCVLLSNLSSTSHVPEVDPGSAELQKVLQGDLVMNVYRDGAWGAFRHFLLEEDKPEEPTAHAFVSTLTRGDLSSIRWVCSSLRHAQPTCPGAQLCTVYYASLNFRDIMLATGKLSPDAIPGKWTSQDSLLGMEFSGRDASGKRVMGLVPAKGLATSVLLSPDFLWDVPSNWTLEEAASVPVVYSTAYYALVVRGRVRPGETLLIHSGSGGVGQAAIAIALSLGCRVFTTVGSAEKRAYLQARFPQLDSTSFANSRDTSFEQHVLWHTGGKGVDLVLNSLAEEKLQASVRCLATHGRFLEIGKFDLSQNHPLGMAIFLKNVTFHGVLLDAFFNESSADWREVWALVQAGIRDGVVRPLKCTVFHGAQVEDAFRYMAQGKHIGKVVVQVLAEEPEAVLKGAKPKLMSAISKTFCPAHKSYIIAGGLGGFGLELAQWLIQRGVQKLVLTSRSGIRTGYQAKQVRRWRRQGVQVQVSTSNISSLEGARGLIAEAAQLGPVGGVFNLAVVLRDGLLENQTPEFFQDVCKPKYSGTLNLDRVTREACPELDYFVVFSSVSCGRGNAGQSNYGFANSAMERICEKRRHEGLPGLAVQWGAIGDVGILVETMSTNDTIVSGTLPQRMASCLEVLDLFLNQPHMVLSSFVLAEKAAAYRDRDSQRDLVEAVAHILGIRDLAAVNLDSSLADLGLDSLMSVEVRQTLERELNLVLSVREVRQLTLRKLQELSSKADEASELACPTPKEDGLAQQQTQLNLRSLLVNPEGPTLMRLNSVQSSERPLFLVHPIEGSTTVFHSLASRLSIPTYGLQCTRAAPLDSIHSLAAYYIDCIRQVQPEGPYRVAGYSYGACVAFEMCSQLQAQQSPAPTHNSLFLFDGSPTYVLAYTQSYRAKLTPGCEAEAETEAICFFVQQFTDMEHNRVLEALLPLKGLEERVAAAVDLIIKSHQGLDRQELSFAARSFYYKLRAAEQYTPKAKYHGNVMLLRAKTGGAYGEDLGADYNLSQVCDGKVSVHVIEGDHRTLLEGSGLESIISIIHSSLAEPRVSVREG

IC50 [nM] | Compound
> 15000 | CS(=O)(=O)c1ccc2[nH]c(=O)c(-c3ccccc3)c(O)c2c1
> 15000 | O=c1[nH]c2ccc(S(=O)(=O)C(F)(F)F)cc2c(O)c1-c1ccccc1
402 | N#Cc1cc(Cl)c2[nH]c(=O)c(-c3ccccc3)c(O)c2c1
> 15000 | O=c1[nH]c2ccc(C(F)(F)F)cc2c(O)c1-c1ccccc1
> 15000 | COc1ccc(CNc2c(-c3ccccc3)c(=O)[nH]c3cc(Cl)c(C#N)cc23)cc1
> 15000 | N#Cc1cc2c(C#N)c(-c3ccccc3)c(=O)[nH]c2cc1Cl
1290 | N#Cc1ccc2[nH]c(=O)c(-c3ccccc3)c(O)c2c1
136 | N#Cc1cc2c(O)c(-c3ccccc3)c(=O)[nH]c2cc1Cl
68 | N#Cc1cc2c(O)c(-c3cccc(-c4ccc(F)c(F)c4)c3)c(=O)[nH]c2cc1Cl
19 | COc1ccccc1-c1cccc(-c2c(O)c3cc(C#N)c(Cl)cc3[nH]c2=O)c1
734 | Cn1cc(-c2cccc(-c3c(O)c4cc(C#N)c(Cl)cc4[nH]c3=O)c2)cn1
54 | N#Cc1cc2c(O)c(-c3cccc(-c4ccc(F)cc4)c3)c(=O)[nH]c2cc1Cl
> 15000 | N#Cc1cc2c(NCc3ccccc3)c(-c3ccccc3)c(=O)[nH]c2cc1Cl
> 15000 | N#Cc1cc2c(Cl)c(-c3ccccc3)c(=O)[nH]c2cc1Cl
4160 | CS(=O)(=O)c1cccc(-c2c(O)c3cc(C#N)c(Cl)cc3[nH]c2=O)c1
728 | N#Cc1cc2c(O)c(-c3cccc(-c4cc(F)cc(F)c4)c3)c(=O)[nH]c2cc1Cl
52 | N#Cc1cc2c(O)c(-c3cccc(-c4ccccc4)c3)c(=O)[nH]c2cc1Cl
194 | N#Cc1cc2c(O)c(-c3cccc(-c4cccnc4)c3)c(=O)[nH]c2cc1Cl
101 | N#Cc1cc2c(O)c(-c3cccc(-c4csc5ccccc45)c3)c(=O)[nH]c2cc1Cl
207 | O=c1[nH]c2cc(Cl)c([N+](=O)[O-])cc2c(O)c1-c1ccccc1
127 | N#Cc1cc2c(O)c(-c3cccc(-c4ccc5ccccc5c4)c3)c(=O)[nH]c2cc1Cl
> 15000 | N#Cc1cc2c(N)c(-c3ccccc3)c(O)nc2cc1Cl
1400 | O=c1[nH]c2ccc([N+](=O)[O-])cc2c(O)c1-c1ccccc1
> 15000 | N#Cc1cc2c(Br)c(-c3ccccc3)c(O)nc2cc1Cl

molecular target: Fatty acid synthase (Rattus norvegicus, UniProt P12785); experiment: Inhibition of rat FAS
Sequence (P12785 whole entry): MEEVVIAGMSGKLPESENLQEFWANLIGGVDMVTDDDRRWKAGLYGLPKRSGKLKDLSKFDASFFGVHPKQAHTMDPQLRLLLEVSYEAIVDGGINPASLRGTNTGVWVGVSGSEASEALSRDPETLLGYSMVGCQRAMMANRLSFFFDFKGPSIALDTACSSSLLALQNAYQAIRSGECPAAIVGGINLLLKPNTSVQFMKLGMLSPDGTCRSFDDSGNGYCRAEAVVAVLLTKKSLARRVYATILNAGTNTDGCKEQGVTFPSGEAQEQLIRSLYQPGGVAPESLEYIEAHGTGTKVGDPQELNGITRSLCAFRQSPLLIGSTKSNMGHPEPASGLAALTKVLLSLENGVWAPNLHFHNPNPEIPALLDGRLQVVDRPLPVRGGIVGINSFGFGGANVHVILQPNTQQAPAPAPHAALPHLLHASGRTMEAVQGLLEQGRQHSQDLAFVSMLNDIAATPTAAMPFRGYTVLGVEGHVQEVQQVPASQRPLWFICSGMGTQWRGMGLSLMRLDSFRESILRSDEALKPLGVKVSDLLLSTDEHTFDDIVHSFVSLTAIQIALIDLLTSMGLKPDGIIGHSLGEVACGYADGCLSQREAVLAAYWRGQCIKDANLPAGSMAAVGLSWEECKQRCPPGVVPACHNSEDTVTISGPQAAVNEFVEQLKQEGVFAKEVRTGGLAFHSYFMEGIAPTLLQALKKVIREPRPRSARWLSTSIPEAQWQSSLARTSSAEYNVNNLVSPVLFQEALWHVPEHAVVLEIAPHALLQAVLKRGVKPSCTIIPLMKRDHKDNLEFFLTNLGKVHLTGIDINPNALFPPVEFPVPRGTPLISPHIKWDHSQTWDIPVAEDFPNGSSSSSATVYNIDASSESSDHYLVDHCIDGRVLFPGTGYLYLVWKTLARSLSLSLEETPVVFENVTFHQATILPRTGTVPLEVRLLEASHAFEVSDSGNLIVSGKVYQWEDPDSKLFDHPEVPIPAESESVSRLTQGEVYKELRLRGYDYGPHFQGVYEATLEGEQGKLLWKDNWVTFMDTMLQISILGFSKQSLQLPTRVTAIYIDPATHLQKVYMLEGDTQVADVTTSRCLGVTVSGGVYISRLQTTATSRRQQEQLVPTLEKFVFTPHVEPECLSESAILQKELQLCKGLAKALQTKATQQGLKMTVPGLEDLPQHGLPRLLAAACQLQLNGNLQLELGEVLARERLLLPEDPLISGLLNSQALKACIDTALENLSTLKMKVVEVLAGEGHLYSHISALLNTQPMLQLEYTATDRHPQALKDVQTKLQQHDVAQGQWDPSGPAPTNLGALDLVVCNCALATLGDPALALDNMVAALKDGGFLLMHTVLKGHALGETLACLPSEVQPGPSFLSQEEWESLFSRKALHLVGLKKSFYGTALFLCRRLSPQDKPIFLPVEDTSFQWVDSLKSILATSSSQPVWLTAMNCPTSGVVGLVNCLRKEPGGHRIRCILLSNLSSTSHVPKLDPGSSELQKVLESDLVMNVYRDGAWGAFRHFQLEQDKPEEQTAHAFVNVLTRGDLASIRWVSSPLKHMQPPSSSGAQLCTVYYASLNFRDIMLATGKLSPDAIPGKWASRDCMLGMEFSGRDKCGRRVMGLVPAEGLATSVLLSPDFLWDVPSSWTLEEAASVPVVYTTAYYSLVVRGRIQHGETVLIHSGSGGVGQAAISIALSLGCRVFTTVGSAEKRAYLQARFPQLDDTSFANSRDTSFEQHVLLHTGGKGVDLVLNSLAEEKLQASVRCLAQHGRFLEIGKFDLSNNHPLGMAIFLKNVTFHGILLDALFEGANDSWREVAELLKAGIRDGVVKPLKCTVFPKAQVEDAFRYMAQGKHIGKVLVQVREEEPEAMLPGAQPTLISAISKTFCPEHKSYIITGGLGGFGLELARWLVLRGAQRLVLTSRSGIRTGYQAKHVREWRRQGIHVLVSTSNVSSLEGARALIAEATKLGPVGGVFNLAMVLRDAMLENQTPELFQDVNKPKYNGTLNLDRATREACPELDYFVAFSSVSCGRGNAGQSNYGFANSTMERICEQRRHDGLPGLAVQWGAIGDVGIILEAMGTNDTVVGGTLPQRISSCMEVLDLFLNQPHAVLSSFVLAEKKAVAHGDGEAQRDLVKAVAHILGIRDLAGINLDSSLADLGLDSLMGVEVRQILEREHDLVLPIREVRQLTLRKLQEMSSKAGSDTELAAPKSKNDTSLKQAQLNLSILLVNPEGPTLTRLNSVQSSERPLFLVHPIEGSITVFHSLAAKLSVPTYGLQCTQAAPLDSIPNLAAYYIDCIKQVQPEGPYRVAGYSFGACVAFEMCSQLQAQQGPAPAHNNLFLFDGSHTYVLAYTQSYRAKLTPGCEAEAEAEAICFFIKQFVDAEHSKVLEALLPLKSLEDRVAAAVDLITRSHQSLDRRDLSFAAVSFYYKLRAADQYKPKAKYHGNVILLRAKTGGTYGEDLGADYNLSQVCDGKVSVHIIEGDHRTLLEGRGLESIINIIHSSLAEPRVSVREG

IC50 [nM] | Compound
> 15000 | CS(=O)(=O)c1ccc2[nH]c(=O)c(-c3ccccc3)c(O)c2c1
> 15000 | O=c1[nH]c2ccc(S(=O)(=O)C(F)(F)F)cc2c(O)c1-c1ccccc1
> 15000 | O=C(O)c1ccc2[nH]c(=O)c(-c3ccccc3)c(O)c2c1
> 15000 | O=c1[nH]c2ccc(C(F)(F)F)cc2c(O)c1-c1ccccc1
173 | O=c1[nH]c2cc(Cl)c([N+](=O)[O-])cc2c(O)c1-c1ccc(F)cc1F
50 | O=c1[nH]c2cc(F)c([N+](=O)[O-])cc2c(O)c1-c1ccccc1
2600 | O=c1[nH]c2cc(Cl)c([N+](=O)[O-])cc2c(O)c1-c1nnn[nH]1
6000 | O=c1[nH]c2cc(Cl)c([N+](=O)[O-])cc2c(O)c1-c1ccc2ccccc2c1
3400 | Cc1cc(-c2c(O)c3cc([N+](=O)[O-])c(Cl)cc3[nH]c2=O)on1
134 | O=c1[nH]c2cc(Cl)c([N+](=O)[O-])cc2c(O)c1-c1cc(Cl)cc(Cl)c1
172 | O=c1[nH]c2cc(Cl)c([N+](=O)[O-])cc2c(O)c1-c1cc(F)cc(F)c1
> 15000 | O=c1[nH]c2ccccc2c(O)c1-c1ccccc1
3000 | O=c1[nH]c2c([N+](=O)[O-])cccc2c(O)c1-c1ccccc1
> 15000 | O=c1cc(O)c2cc([N+](=O)[O-])ccc2[nH]1
700 | O=c1[nH]c2cc(Cl)c([N+](=O)[O-])cc2c(O)c1-c1cccs1
86 | O=c1[nH]c2cc(Cl)c([N+](=O)[O-])cc2c(O)c1-c1ccc(OCc2ccccc2)cc1
122 | O=c1[nH]c2cc(Cl)c([N+](=O)[O-])cc2c(O)c1-c1ccc(-c2ccccc2)cc1
73 | O=c1[nH]c2cc(Cl)c([N+](=O)[O-])cc2c(O)c1-c1ccccc1
550 | O=c1[nH]c2ccc([N+](=O)[O-])cc2c(O)c1-c1ccccc1
443 | O=c1[nH]c2cc(Cl)c([N+](=O)[O-])cc2c(O)c1-c1ccc(Cl)cc1Cl
